Measured values: publication PMC4303209, “A novel phosphatidylinositol 3-kinase (PI3K) inhibitor directs a potent FOXO-dependent, p53-independent cell cycle arrest phenotype characterized by the differential induction of a subset of FOXO-regulated genes” (Breast Cancer Research : BCR, 2014)

Tested on: MCF-7 breast cancer cells
Experiment: Microarray gene expression analysis (Agilent whole human genome 4 x 44K; compound vs DMSO, LIMMA log2 fold change)
Type: cell-based
Details: Apoptosis genes

SMILES: Cn1ncc2c(N3CCOCC3)nc(-c3cccc(O)c3)nc21 [ETP-45658]
- HSPD1 log2FC (Gene 3329): 0.324
- HSPE1 log2FC (Gene 3336): -0.110
- HTR2B log2FC (Gene 3357): -0.636
- IAPP log2FC (Gene 3375): -0.105
- ID1 log2FC (Gene 3397): -0.206
- ID3 log2FC (Gene 3399): -0.237
- IFI16 log2FC (Gene 3428): 0.357
- IFI27 log2FC (Gene 3429): -0.362
- IFIT2 log2FC (Gene 3433): 1.724
- IFIT3 log2FC (Gene 3437): 0.389
- IFNG log2FC (Gene 3458): -0.055
- IGBP1 log2FC (Gene 3476): 0.248
- IGF1 log2FC (Gene 3479): 0.046
- IGF1R log2FC (Gene 3480): 0.075
- IGF2R log2FC (Gene 3482): 0.109
- IGFBP3 log2FC (Gene 3486): -0.114
- IKBKB log2FC (Gene 3551): 0.231
- IL1B log2FC (Gene 3553): -0.057
- IL1RN log2FC (Gene 3557): -0.173
- IL2 log2FC (Gene 3558): -0.036
- IL4 log2FC (Gene 3565): -0.060
- IL6 log2FC (Gene 3569): 0.421
- IL6R log2FC (Gene 3570): 0.499
- IL6ST log2FC (Gene 3572): 0.387
- IL7 log2FC (Gene 3574): 0.329
- IL10 log2FC (Gene 3586): -0.054
- TNFRSF9 log2FC (Gene 3604): -0.082
- ING2 log2FC (Gene 3622): 0.424
- INHBA log2FC (Gene 3624): -0.426
- INHBB log2FC (Gene 3625): -1.024
- INS log2FC (Gene 3630): -0.159
- INPP5D log2FC (Gene 3635): -0.052
- INSL3 log2FC (Gene 3640): -0.299
- IRAK1 log2FC (Gene 3654): -0.289
- IRF1 log2FC (Gene 3659): -0.225
- IRF3 log2FC (Gene 3661): -0.604
- IRF5 log2FC (Gene 3663): 1.125
- IRF7 log2FC (Gene 3665): 0.214
- ITGA1 log2FC (Gene 3672): 0.199
- ITGA5 log2FC (Gene 3678): -0.764
- ITGAV log2FC (Gene 3685): 0.634
- ITGB1 log2FC (Gene 3688): 0.722
- ITPR1 log2FC (Gene 3708): 0.270
- JAG2 log2FC (Gene 3714): 0.300
- JAK2 log2FC (Gene 3717): 0.353
- JAK3 log2FC (Gene 3718): -0.320
- JUN log2FC (Gene 3725): -0.912
- KCNMA1 log2FC (Gene 3778): 0.256
- KNG1 log2FC (Gene 3827): -0.104
- KPNA1 log2FC (Gene 3836): -0.177
- KPNB1 log2FC (Gene 3837): 0.586
- KRT8 log2FC (Gene 3856): -0.518
- KRT18 log2FC (Gene 3875): -0.481
- LCK log2FC (Gene 3932): -0.268
- LEP log2FC (Gene 3952): -0.061
- LGALS7 log2FC (Gene 3963): -0.300
- LIG4 log2FC (Gene 3981): 0.100
- LMNA log2FC (Gene 4000): -0.311
- LMNB1 log2FC (Gene 4001): -0.133
- LRP6 log2FC (Gene 4040): -0.141
- LTBR log2FC (Gene 4055): -0.240
- LTK log2FC (Gene 4058): -0.048
- LYN log2FC (Gene 4067): -0.239
- SMAD3 log2FC (Gene 4088): 0.254
- SMAD6 log2FC (Gene 4091): -0.277
- MAL log2FC (Gene 4118): -0.683
- MAX log2FC (Gene 4149): -0.288
- MCF2 log2FC (Gene 4168): 0.044
- MCL1 log2FC (Gene 4170): -1.365
- MDK log2FC (Gene 4192): -0.110
- MDM2 log2FC (Gene 4193): -0.059
- MECP2 log2FC (Gene 4204): -0.162
- MEF2A log2FC (Gene 4205): -0.315
- MEF2C log2FC (Gene 4208): 0.262
- MEF2D log2FC (Gene 4209): -0.705
- MAP3K5 log2FC (Gene 4217): -0.666
- MEN1 log2FC (Gene 4221): -0.273
- KITLG log2FC (Gene 4254): -0.228
- MGMT log2FC (Gene 4255): -0.305
- MIF log2FC (Gene 4282): 0.242
- MLH1 log2FC (Gene 4292): 0.538
- MAP3K9 log2FC (Gene 4293): -0.899
- MAP3K10 log2FC (Gene 4294): 0.297
- MAP3K11 log2FC (Gene 4296): -0.949
- MMP9 log2FC (Gene 4318): -0.727
- MNAT1 log2FC (Gene 4331): 0.729
- MNT log2FC (Gene 4335): 1.624
- MPO log2FC (Gene 4353): 0.046
- CITED1 log2FC (Gene 4435): -0.078
- MSH2 log2FC (Gene 4436): 0.939
- MSX1 log2FC (Gene 4487): -0.324
- MUC1 log2FC (Gene 4582): -0.901
- MUC2 log2FC (Gene 4583): -0.262
- MUC5AC log2FC (Gene 4586): -0.379
- MUSK log2FC (Gene 4593): -0.344
- MX1 log2FC (Gene 4599): 0.147
- MYC log2FC (Gene 4609): 0.554
- MYD88 log2FC (Gene 4615): -0.689
- GADD45B log2FC (Gene 4616): 0.642
- NBN log2FC (Gene 4683): 0.839
- NDUFS1 log2FC (Gene 4719): 0.459
- NF1 log2FC (Gene 4763): 0.412
- NFATC4 log2FC (Gene 4776): 0.112
- NFE2L2 log2FC (Gene 4780): 0.727
- NFKB1 log2FC (Gene 4790): -0.122
- NFKBIA log2FC (Gene 4792): -0.281
- NGFR log2FC (Gene 4804): -0.063
- NKX3-1 log2FC (Gene 4824): -0.261
- NME1 log2FC (Gene 4830): 0.168
- NME2 log2FC (Gene 4831): 0.216
- NME3 log2FC (Gene 4832): -0.214
- NMT1 log2FC (Gene 4836): -0.046
- NODAL log2FC (Gene 4838): -0.110
- NOS3 log2FC (Gene 4846): -0.420
- NOTCH2 log2FC (Gene 4853): 0.166
- NPM1 log2FC (Gene 4869): 0.586
- NPTX1 log2FC (Gene 4884): -0.350
- NPY5R log2FC (Gene 4889): -0.068
- SLC11A2 log2FC (Gene 4891): 0.211
- NRAS log2FC (Gene 4893): -0.204
- NTF3 log2FC (Gene 4908): -1.251
- NTRK2 log2FC (Gene 4915): -0.357
- NR4A2 log2FC (Gene 4929): 0.761
- OCLN log2FC (Gene 4950): 0.639
- OPA1 log2FC (Gene 4976): 0.527
- TNFRSF11B log2FC (Gene 4982): 0.707
- OSM log2FC (Gene 5008): 0.056
- P2RX1 log2FC (Gene 5023): -0.067
- P2RX4 log2FC (Gene 5025): 0.236
- P2RX7 log2FC (Gene 5027): -0.509
- SERPINB2 log2FC (Gene 5055): -0.075
- PAK1 log2FC (Gene 5058): 0.117
- PAK2 log2FC (Gene 5062): -0.170
- PARK2 log2FC (Gene 5071): -0.177
- PAWR log2FC (Gene 5074): 0.858
- PAX3 log2FC (Gene 5077): -0.277
- PAX4 log2FC (Gene 5078): -0.139
- PAX7 log2FC (Gene 5081): -0.260
- PCNT log2FC (Gene 5116): 0.317
- PDCD1 log2FC (Gene 5133): -0.432
- PDCD2 log2FC (Gene 5134): -0.150
- PDE1A log2FC (Gene 5136): -0.227
- PDK1 log2FC (Gene 5163): 0.562
- PDK2 log2FC (Gene 5164): 1.064
- PDK4 log2FC (Gene 5166): 0.792
- PDPK1 log2FC (Gene 5170): 0.541
- PHB log2FC (Gene 5245): -0.244
- SERPINB9 log2FC (Gene 5272): -0.261
- SERPINB10 log2FC (Gene 5273): 0.731
- PIK3CA log2FC (Gene 5290): 0.795
- PIM1 log2FC (Gene 5292): 1.131
- PIK3R1 log2FC (Gene 5295): 0.328
- PLAGL1 log2FC (Gene 5325): 0.310
- PLAGL2 log2FC (Gene 5326): -1.493
- PLK1 log2FC (Gene 5347): -0.287
- PLSCR1 log2FC (Gene 5359): 0.433
- PMAIP1 log2FC (Gene 5366): -1.093
